We go through 6 compounds from publication PMC4269296 (Nucleosides, nucleotides & nucleic acids, 2015).

pEC50: −log10 of the molar value.

Data set [1] concerns X4 (IIIB) HIV-1. The experiment in a line: Single-round. The data set is classed as cell-based. The conditions noted are these: Human immunodeficiency virus 1, IIIB, MAGI, read-out: Cell-Free Virus X4 EC50.
Data set [2] has as its system R5 (BaL) HIV-1. The experiment in a line: Single-round. The data set is classed as cell-based. The conditions noted are these: Human immunodeficiency virus 1, BAL, MAGI, read-out: Cell-Free Virus R5 EC50.
For data set [3], the system named is Cell-Associated Virus (X4). The experiment in a line: Cell-associated transmission assay. To be noted: for pEC50: Human immunodeficiency virus 1, read-out: Cell-Associated Virus CTC EC50; for Cell-Associated Virus CTC EC50: cell-associated transmission assay (X4). The data set is classed as cell-based, HIV-1.
In data set [4] the test system is X4 and R5 cell free virus. The data set is classed as cell-based, HIV-1. To be noted: for pEC50: Human immunodeficiency virus 1, read-out: EC50 against X4 and R5 cell free virus.
The nature of data set [5]: in vitro. To be noted: human.
The test system of data set [6] is HIV infected T4 lymphocytes. The conditions noted are these: read-out: EC50 against HIV infected T4 lymphocytes; cited from earlier work.

In the case of `Nc1ccn([C@@H]2CS[C@H](CO)O2)c(=O)n1` [3TC (2), (−)-2′,3′-Dideoxy-3′-thiacytidine], the pEC50 in data set [1] is 5.12; in data set [2] it was 5.59; in data set [3] it was 4.74; in data set [4], 5.12 to 5.59. The EC50 at 2 h in data set [5] was above 100 µM.
As for `CCSCCCCCCCCCCCC(=O)O` [12-Thioethyldodecanoic acid], in data set [6], the pEC50 is 5.03.
Turning to `N=C(N)NCCC[C@H](NC(=O)[C@H](CCCNC(=N)N)NC(=O)[C@H](CCCNC(=N)N)NC(=O)[C@H](CCCNC(=N)N)NC(=O)[C@H](CCCNC(=N)N)NC(=O)[C@H](CCCNC(=N)N)NC(=O)[C@H](CCCNC(=N)N)NC(=O)CCCCCCCCCCCCC(=O)OC[C@@H]1O[C@H](n2ccc(N)nc2=O)CS1)C(=O)O` [Compound 14, 1-[(−)-2′,3′-Dideoxy-3′-thiacytidine]tetradecan-1,14-dioate conjugate of PolyArg], the “Cell-Associated Virus CTC EC50” value in data set [3] is above 30 µM. Also, in data set [4] (ratio of R5 and X4 EC50), the “fold higher inhibition against X4 virus than the R5 virus strain” value is “approximately 2 fold”.
As to `N=C(N)NCCC[C@H](NC(=O)[C@H](CCCNC(=N)N)NC(=O)[C@H](CCCNC(=N)N)NC(=O)[C@H](CCCNC(=N)N)NC(=O)[C@H](CCCNC(=N)N)NC(=O)[C@H](CCCNC(=N)N)NC(=O)[C@H](CCCNC(=N)N)NC(=O)CCCCCCCCCCCCC(=O)OC[C@@H]1O[C@H](n2cc(F)c(N)nc2=O)CS1)C(=O)O` [Compound 15, 1-[(−)-2′,3′-dideoxy-5-fluoro-3′-thiacytidine]tetradecan-1,14-dioate conjugate of PolyArg], the “Cell-Associated Virus CTC EC50” value in data set [3] is above 30 µM.
For the compound `Cc1cn([C@H]2C[C@H](F)[C@@H](CO)O2)c(=O)[nH]c1=O` [FLT (1), 3′-Fluoro-2′,3′-deoxythymidine], the pEC50 was 6.70 in data set [1], 7.00 in data set [2], below 4.00 in data set [3] and 6.70 to 7.00 in data set [4]. This compound also gave an EC50 at 2 h in data set [5] above 100 µM.
On to `Nc1nc(=O)n([C@@H]2CS[C@H](CO)O2)cc1F` [FTC (3), (−) 2′,3′–Dideoxy-5-fluoro-3′-thiacytidine], for which the values for the pEC50 in data set [3] and in data set [4] were 4.66 and 6.32 to 6.74, respectively. Besides, the EC50 at 2 h in data set [5] was above 100 µM.
